The values that follow are results of earlier work, collected in patent publication US7785824B2, “Hydrolysed casein product comprising tripeptides IPP and/or VPP” (Conopco Inc., priority 2003, dated 2010).

Data set [1] has as its target Angiotensin I Converting Enzyme (ACE) (Homo sapiens, UniProt P12821). As to conditions: concentration which results in 50% inhibition of the ACE activity.
Another data set has as its system hypertensive humans. As to conditions: in sour milk, placebo-controlled study.

Sequence of Angiotensin I Converting Enzyme (ACE) (P12821 30-1306, species assumed): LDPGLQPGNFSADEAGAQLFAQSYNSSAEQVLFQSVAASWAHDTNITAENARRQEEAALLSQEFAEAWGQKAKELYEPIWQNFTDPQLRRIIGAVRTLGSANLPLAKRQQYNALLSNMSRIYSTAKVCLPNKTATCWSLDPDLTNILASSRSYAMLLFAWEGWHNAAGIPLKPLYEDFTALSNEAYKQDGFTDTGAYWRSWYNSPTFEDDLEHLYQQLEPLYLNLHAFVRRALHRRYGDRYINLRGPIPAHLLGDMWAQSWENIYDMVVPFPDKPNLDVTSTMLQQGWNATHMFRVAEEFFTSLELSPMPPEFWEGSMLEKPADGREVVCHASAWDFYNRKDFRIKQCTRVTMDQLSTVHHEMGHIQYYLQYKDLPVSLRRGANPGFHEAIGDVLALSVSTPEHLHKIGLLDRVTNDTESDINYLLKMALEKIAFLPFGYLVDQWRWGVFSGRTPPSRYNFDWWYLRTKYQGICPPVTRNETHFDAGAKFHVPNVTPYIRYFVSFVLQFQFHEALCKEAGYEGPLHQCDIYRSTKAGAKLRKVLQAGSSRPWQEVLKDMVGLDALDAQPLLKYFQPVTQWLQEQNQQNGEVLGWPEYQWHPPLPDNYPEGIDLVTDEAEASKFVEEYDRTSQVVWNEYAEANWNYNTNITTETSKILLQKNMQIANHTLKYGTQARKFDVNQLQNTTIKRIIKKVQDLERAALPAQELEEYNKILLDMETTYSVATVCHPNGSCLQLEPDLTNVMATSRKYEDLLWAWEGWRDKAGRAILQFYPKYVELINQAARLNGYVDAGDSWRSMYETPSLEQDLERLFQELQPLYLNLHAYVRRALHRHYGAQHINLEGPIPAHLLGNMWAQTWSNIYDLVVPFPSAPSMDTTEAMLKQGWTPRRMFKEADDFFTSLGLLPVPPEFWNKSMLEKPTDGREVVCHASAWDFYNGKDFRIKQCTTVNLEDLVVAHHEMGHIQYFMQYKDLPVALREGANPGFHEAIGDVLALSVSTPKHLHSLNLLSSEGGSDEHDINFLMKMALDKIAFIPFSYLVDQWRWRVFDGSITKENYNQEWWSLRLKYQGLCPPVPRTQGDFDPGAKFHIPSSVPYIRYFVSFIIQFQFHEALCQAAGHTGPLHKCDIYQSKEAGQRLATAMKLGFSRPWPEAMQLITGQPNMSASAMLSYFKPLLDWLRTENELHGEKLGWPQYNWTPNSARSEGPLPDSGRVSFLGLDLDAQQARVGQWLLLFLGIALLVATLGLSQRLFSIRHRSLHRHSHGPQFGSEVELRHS

On to Val-Pro-Pro [VPP], for which, in data set [1], the IC50 is 9 µM. Besides, in the data set with hypertensive humans, the “blood pressure lowering effect” value is “blood pressure lowering effect”.
As to Ile-Pro-Pro [IPP], in data set [1], the IC50 is 5 µM. Further, the “blood pressure lowering effect” value in the data set on hypertensive humans is “blood pressure lowering effect”.
Turning to Leu-Pro-Pro [LPP], in data set [1], the IC50 was 9.6 µM.
